Data reported in patent publication US20100063085A1, “METHOD OF TREATING LEARNING IMPAIRMENT IN DOWN'S SYNDROME SUBJECTS” (University Court of The University of Dundee, priority 2008, published 2010).
Read-outs that look alike come from different tables or passages of the source.

Experiments:
Assay type in all cases: biochemical
MAPKAP-K2 = MAPKAP-K2 (Homo sapiens, UniProt P49137); assay: MAPKAP-K2 33P kinase assay; conditions: read-out: MAPKAP-K2 activity as percentage of control without inhibitor
Sequence of MAPKAP-K2 (P49137 whole entry, species assumed): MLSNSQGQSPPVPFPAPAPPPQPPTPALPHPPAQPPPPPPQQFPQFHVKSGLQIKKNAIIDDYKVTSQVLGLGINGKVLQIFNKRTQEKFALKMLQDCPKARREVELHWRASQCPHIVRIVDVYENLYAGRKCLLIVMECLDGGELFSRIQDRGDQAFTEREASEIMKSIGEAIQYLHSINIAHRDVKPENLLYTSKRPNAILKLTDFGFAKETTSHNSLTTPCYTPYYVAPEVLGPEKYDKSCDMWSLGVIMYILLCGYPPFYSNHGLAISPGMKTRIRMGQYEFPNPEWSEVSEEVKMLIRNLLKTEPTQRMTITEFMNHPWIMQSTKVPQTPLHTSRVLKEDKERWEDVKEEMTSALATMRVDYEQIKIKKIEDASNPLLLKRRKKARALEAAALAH
Description: (§1) All assays (25.5 μl) were carried out at room temperature (21° C.) and were linear with respect to time and enzyme concentrations under the conditions used. Assays were performed for 30 minutes except assays for LCK and PKB which were performed for 15 minutes using Multidrop Micro reagent dispensers (Thermo Electron Corporation, Waltham, Mass. 02454, USA) in a 96-well format. The concentration of […] [γ-^33P] ATP (800 cpm/pmol) in the assays was one of three concentrations (5, 20 or 50 μM) in order to be at or below Km for ATP for the enzyme. Assays were initiated with MgATP and stopped by addition of 5 μl of 0.5M orthophosphoric acid. Assays were then harvested onto P81 filterplates using a unifilter harvester (PerkinElmer, Boston, Mass. 02118, USA), with a wash buffer of 50 mM orthophosphoric acid. Filterplates were then air dried overnight. 10 μl of Microscint O was added per well prior to counting for radioactivity.
(§2) MKK1, JNK/SAPK1c, SAPK2a/p38, SAPK2b/p38β2, SAPK3/p38γ, SAPK4/p38δ, MAPK2/ERK2, MAPKAP-K1β, MAPKAP-K2, MSK1, PRAK, PKA, PKCα, PDK1, SGK, p70S6K, GSK3β, ROCK-II, PRK2, AMPK, CHK1, CHK2, CK2, PHK, LCK, were assayed according to Davies et al., (Davies, S. P., Reddy, H., Caivano, M. and Cohen, P. Biochem. J. 351, 95-105, 2000.
(§3) CSK and CDK2/cyclinA, were assayed according to Bain et al. (Bain J, McLauchlan H, Elliott M, Cohen P. Biochem J. 371, 199-204, 2003., except that ATP concentrations were either 5, 20 or 50 micromolar so that they were at or below the Km for ATP. The ATP concentrations used were as follows, 5 μM for assays of MKK1, SAPK3, SAPK4, GSK3β, PRK2 CK2 20 μm for assays of JNK, SAPK2β, MAPKAP-K2, MSK1, PRAK, PKA, […], PDK1, SGK, p70S6K, ROCK-II, CHK1, CHK2, CSK, CDK2, and 50 μM for assays of SAPK2a, MAPK2/ERK2, AMPK, LCK, PHK and MAPKAP-K1β.

JNK3 = JNK3 (Homo sapiens, UniProt P53779); assay: JNK3 33P kinase assay; conditions: read-out: JNK3 activity as percentage of control without inhibitor
Sequence of JNK3 (P53779 whole entry, species assumed): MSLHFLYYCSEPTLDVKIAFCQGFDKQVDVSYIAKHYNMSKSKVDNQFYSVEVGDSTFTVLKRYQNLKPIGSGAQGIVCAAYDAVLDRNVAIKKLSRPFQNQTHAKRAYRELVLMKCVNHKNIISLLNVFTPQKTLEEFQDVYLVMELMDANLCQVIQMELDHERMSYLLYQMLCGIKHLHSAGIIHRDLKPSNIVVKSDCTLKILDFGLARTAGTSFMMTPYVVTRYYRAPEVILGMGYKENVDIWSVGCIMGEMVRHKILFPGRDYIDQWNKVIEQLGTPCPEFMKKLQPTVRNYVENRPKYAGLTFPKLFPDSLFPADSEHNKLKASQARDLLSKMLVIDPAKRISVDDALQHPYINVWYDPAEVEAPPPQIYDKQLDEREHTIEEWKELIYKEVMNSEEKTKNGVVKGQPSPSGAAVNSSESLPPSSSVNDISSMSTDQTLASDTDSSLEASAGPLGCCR
Description: as §1
The following kinases were assayed against the substrates indicated. Aurora B was assayed against the substrate peptide […] (300 μM), ERK8 and MST-2 were both assayed against MBP (0.33 mg/ml). IKKβ was assayed against the substrate peptide […] (300 μM), JNK3 was assayed against 3 μM ATF2[19-96]. MAPKAP-K3 and PKD1 were both assayed against […] (30 μM), MARK3 was assayed against CHKtide ([…]) substrate peptide (300 μM). MNK1 and MNK2 were both assayed against eIF4E protein (0.5 mg/ml). NEK7 was assayed against […] (300 μM), PIM2 was assayed against […] (300 μM), ΔPH PKBβ-S474D was assayed against Crosstide (30 μM), PLK1 was assayed against […] (300 μM). PRK2 was assayed against Long S6 peptide, […] (30 μM), RSK2 was assayed against […] (30 μM), SRC was assayed against cdc2 peptide, […], (300 μM) and SRPK1 was assayed against peptide […] (300 μM). All enzymes were diluted in 50 mM Tris/HCl pH 7.5, 0.1 mM EGTA, 1 mg/ml BSA, 0.1% β-mercaptoethanol buffer and assayed in an incubation containing 50 mM Tris/HCl pH7.5, 0.1 mM EGTA, 0.1% β-mercaptoethanol, CAMK-1 (5-20 mU) diluted in 50 mM Tris/HCl pH 7.5, 0.1 mM EGTA, 1 mg/ml BSA, 0.1% β-mercaptoethanol is assayed against substrate peptide […] in an incubation containing 50 mM Tris/HCl pH 7.5, 0.1 mM EGTA, 0.5 mM CaCl2, 0.3 μM calmodulin, 0.1% β-mereaptoethanol, 300 μM substrate peptide, 10 mM magnesium acetate and 0.05 mM [^33P-γ-ATP] (500-1000 cpm/pmole). EF2K (5-20 mU) diluted in 50 mM Hepes pH 6.6, 0.1% β-mercaptoethanol, 1 mg/ml BSA is assayed against a substrate peptide […] in an incubation containing 50 mM Hepes pH 6.6, 0.2 mM CaCl2, 0.3 μM Calmodulin, 0.05% b-mercaptoethanol, 300 μM substrate peptide, 10 mM magnesium acetate and 0.05 mM [^33P-γ-ATP] (500-1000 cpm/pmole).

MSK1 = MSK1 (Homo sapiens, UniProt O75582); assay: MSK1 33P kinase assay; conditions: read-out: MSK1 activity as percentage of control without inhibitor
Sequence of MSK1 (O75582 whole entry, species assumed): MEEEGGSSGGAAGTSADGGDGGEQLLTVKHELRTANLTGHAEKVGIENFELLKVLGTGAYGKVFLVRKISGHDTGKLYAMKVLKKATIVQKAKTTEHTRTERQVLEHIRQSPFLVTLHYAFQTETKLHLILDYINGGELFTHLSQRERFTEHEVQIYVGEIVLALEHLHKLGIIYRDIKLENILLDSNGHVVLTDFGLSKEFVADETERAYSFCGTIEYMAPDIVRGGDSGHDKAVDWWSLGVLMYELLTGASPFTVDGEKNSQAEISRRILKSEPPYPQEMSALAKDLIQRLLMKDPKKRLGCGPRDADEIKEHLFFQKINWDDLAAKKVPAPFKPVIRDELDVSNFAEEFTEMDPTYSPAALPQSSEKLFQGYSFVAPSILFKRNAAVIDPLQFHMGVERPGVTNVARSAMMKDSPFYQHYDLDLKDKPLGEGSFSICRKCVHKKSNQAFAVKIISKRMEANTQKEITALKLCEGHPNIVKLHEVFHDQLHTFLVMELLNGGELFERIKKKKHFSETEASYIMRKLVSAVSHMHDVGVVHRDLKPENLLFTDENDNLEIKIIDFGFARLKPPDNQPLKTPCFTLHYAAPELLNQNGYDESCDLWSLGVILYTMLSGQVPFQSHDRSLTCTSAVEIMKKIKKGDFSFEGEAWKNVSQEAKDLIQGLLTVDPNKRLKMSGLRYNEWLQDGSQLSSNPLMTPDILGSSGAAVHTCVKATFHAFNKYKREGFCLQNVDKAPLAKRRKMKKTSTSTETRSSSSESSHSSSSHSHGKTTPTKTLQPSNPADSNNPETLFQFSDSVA
Description: as §1, §2, §3

PRAK = target: T1, PRAK (Homo sapiens, UniProt Q8IW41); assay: PRAK 33P kinase assay; conditions: read-out: PRAK activity as percentage of control without inhibitor; for remaining activity at 1 µM: inhibitor 1 μM; for remaining activity at 10 µM: inhibitor 10 μM
T1 sequence (Q8IW41 1-473): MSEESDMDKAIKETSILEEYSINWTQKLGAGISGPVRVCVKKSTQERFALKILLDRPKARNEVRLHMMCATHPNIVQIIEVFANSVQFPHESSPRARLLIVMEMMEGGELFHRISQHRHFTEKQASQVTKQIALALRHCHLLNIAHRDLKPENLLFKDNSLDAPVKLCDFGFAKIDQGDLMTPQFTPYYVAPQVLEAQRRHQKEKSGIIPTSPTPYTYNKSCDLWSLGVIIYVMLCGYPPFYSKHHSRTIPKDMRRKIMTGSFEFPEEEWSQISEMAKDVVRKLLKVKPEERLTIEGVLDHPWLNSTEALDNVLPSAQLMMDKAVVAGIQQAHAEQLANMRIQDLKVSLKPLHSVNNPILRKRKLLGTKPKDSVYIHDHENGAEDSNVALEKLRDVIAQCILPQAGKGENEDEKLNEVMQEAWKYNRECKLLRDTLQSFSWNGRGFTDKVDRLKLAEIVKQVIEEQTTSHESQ
Description: as §1, §2, §3

Compound: COc1ccc2c3c([nH]c2c1)C(C)=NCC3 [Harmaline]
- remaining activity at 1 µM (MAPKAP-K2; inhibitor 1 μM): 104%
- remaining activity at 10 µM (MAPKAP-K2; inhibitor 10 μM): 112%
- remaining activity at 1 µM (JNK3): 87%
- remaining activity at 10 µM (JNK3): 81%
- remaining activity at 1 µM (MSK1; inhibitor 1 μM): 98%
- remaining activity at 10 µM (MSK1; inhibitor 10 μM): 111%
- remaining activity at 1 µM (PRAK): 88%
- remaining activity at 10 µM (PRAK): 93%

Compound: CC1=NCCc2c1[nH]c1cc(O)ccc21 [Harmalol]
- remaining activity at 1 µM (MAPKAP-K2; inhibitor 1 μM): 79%
- remaining activity at 10 µM (MAPKAP-K2; inhibitor 10 μM): 69%
- remaining activity at 1 µM (JNK3; inhibitor 1 μM): 92%
- remaining activity at 10 µM (JNK3; inhibitor 10 μM): 94%
- remaining activity at 1 µM (MSK1; inhibitor 1 μM): 84%
- remaining activity at 10 µM (MSK1; inhibitor 10 μM): 59%
- remaining activity at 1 µM (PRAK): 84%
- remaining activity at 10 µM (PRAK): 78%

Compound: COc1ccc2c(c1)[nH]c1c(C)nccc12 [Harmine]
- remaining activity at 1 µM (MAPKAP-K2): 78%
- remaining activity at 10 µM (MAPKAP-K2): 82%
- remaining activity at 1 µM (JNK3): 89%
- remaining activity at 10 µM (JNK3): 83%
- remaining activity at 1 µM (MSK1): 90%
- remaining activity at 10 µM (MSK1): 88%
- remaining activity at 1 µM (PRAK): 81%
- remaining activity at 10 µM (PRAK): 75%
